The subject of assay [1] is HDFn + (IL-1β, TNFα, IFNy, EGF, bFGF and PDGF-BB). Briefly: BioMAP HDF3CGF system. The note with it: annotated relative to vehicle controls. It counts as cell-based, human. The text has this: Cell types and stimuli used in each system are as follows: 3C system [HUVEC + (IL-1β, TNFα and IFNy)], 4H system [HUVEC + (IL-4 and histamine)], LPS system [PBMC and HUVEC + LPS (TLR4 ligand)], SAg system [PBMC and HUVEC + TCR ligands], BT system [CD19+ B cells and PBMC + (α-IgM and TCR ligands)], BF4T system [bronchial epithelial cells and HDFn + (TNFα and IL-4)], BE3C system [bronchial epithelial cells + (IL-1β, TNFα and IFNy)], CASM3C system [coronary artery smooth muscle cells + (IL-1 β, TNFα and IFNy)], HDF3CGF system [HDFn + (IL-1β, TNFα, IFNy, EGF, bFGF and PDGF-BB)], KF3CT system [keratinocytes and HDFn + (IL-1β, TNFα, IFNy and TGFβ)], MyoF system [differentiated lung myofibroblasts + (TNFα and TGFβ)] and Mphg system [HUVEC and M1 macrophages + Zymosan (TLR2 ligand)].
Systems are derived from either single cell types or co-culture systems. Adherent cell types are cultured in 96 or 384-well plates until confluence, followed by the addition of PBMC (SAg and LPS systems). […] Soluble factors from supernatants are quantified using either HTRF® detection, bead-based multiplex immunoassay or capture ELISA. Overt adverse effects of test agents on cell proliferation and viability (cytotoxicity) are detected by sulforhodamine B (SRB) staining, for adherent cells, and alamarBlue® reduction for cells in suspension. […]

For assay [2], the system named is ALS patients. Briefly: Serum metabolites (HPLC) in ALS patients before/after five weekly LMW-DS 1.0 mg/kg s.c. (Example 12). It counts as in vivo, human. The note with it: post- vs pre-treatment. Here is the method:
After an initial screening visit, patients had five weekly dosing of a single LMW-DS (ILB®, Tikomed AB, Viken, Sweden, WO 2016/076780) injection of 1.0 mg/kg body weight in saline into the subcutaneous fat of the lower abdomen.
Peripheral venous blood samples were been collected from the patients after at least 15 minutes of complete rest, using the standard tourniquet procedure, from the antecubital vein into a single VACUETTE® polypropylene tube containing serum separator and clot activator (Greiner-Bio One GmbH, Kremsmunster, Austria). After 30 minutes at room temperature, blood withdrawals were centrifuged at 1,890 × g for 10 min and the resulting serum samples were stored at -20° C. until analysis.
After defrost, an aliquot of 500 µl of each serum sample was supplemented with 1 ml of HPLC-grade acetonitrile, vortexed for 60 seconds, centrifuged at the maximum speed in a top-bench centrifuge to precipitate proteins. Supernatants were washed with large volumes of HPLC-grade chloroform to remove organic solvent, centrifuged and the upper aqueous phases were transferred in different tubes, clearly labeled to identify the sample and stored at -80° C. until analyzed to determine different water-soluble compounds.
A second aliquot of about 300 µl of each serum sample was light-protected and then processed to extract fat-soluble antioxidants using a method described in detail elsewhere (Lazzarino et al., Single-step preparation of selected biological fluids for the high performance liquid chromatographic analysis of fat-soluble vitamins and antioxidants. J Chromatogr A. 2017; 1527: 43-52.). Briefly, samples were supplemented with 1 ml of HPLC-grade acetonitrile, vigorously vortexed for 60 s and incubated at 37° C. for 1 h in a water bath under agitation, to allow the full extraction of lipid soluble compounds. Samples were then centrifuged at 20,690 × g for 15 min at 4 C to precipitate proteins and the clear supernatants were saved at -80° C. until the HPLC analysis of fat-soluble vitamins and antioxidants.
In deproteinized serum samples, the following water-soluble compounds were separated and quantified by HPLC, according to methods described elsewhere (Tavazzi et al., Simultaneous high performance liquid chromatographic separation of purines, pyrimidines, N-acetylated amino acids, and dicarboxylic acids for the chemical diagnosis of inborn errors of metabolism. Clin Biochem. 2005; 38: 997-1008; Romitelli et al., Comparison of nitrite/nitrate concentration in human plasma and serum samples measured by the enzymatic batch Griess assay, ion-pairing HPLC and ion-trap GC-MS: The importance of a correct removal of proteins in the Griess assay. J Chromatogr B Analyt Technol Biomed Life Sci. 2007; 851: 257-267; Amorini et al., Metabolic profile of amniotic fluid as a biochemical tool to screen for inborn errors of metabolism and fetal anomalies. Mol Cell Biochem. 2012; 359: 205-216): hypoxhantine, xanthine, uric acid, malondialdehyde (MDA), nitrite, nitrate, N-acetylaspartate (NAA), citrulline (CITR), alanine (ALA), and ornithine (ORN).
The following fat-soluble vitamins and antioxidants in deproteinized serum samples were separated and quantified by HPLC according to a method as previously described (Lazzarino et al., Cerebrospinal fluid ATP metabolites in multiple sclerosis. Mult Scler J. 2010; 16: 549-554): α-tocopherol (vitamin E) and γ-tocopherol. In addition to the abovementioned fat-soluble antioxidants and vitamins, also the concentration of total bilirubin was determined in serum samples.
Comparison of the Pre- and Post-treatment subgroups was performed by the two-tailed Student’s t-test for paired samples. The comparison of each subgroup with the group of control healthy subjects was carried out by the two-tailed non-parametric Mann-Whitney U-test for unpaired observations. Differences with p < 0.05 were considered statistically significant.

The target of assay [3] is oligomeric amyloid-β / PrP^c interaction (Homo sapiens, UniProt P04156). It counts as binding.

Broadly, the Hill coefficient is a measure of the steepness of the concentration-response curve. One may read the IC50 as the concentration that gives 50% inhibition. High values mean weaker potency in that assay, low ones greater potency in that assay. Take sodium salt of dextran sulfate [LMW-DS]: in assay [1], the Decreased biomarker activity entry was “VCAM-1, IP-10, ITAC, MIG, M-CSF” and the Increased biomarker activity result was “EGFR, MMP-1, PAI-1”. Also, in assay [2], the “serum ALA” value is reported as “normalized”, the “serum CITR” value is “ameliorated”, the “serum MDA” value is reported as “decreased” and the “serum NAA” value is given as “Significantly lower”. Moreover, in assay [2], the “serum ORN/CITR ratio” value was “ameliorated”, the serum nitrate result is given as “decreased”, the “serum nitrite + nitrate” value is on record as “decreased” and the “serum sum of oxypurines” value was “decreased”. Besides, in assay [2], the serum total bilirubin entry is “decreased”, the serum uric acid entry is “decreased”, the “serum α-tocopherol” value is “ameliorated” and the “serum γ-tocopherol” value is “ameliorated”. Besides, in assay [3], the “Competable binding (%)” value is recorded as 85±4%, the Hill coefficient was determined as 1.00±0.21 and the 50% inhibitory concentration (IC50) is 0.42 ± 0.16 µg/mL.

The record behind these values is patent US20230346827A1 (priority 2020, published 2023).
